≈ marks a conversion by molar mass, not a printed value.
Key:
[1] = tested on: Peptostreptococcus; assay: In vitro MIC determination, clinical anaerobic strains; assay type: cell-based; conditions: Peptostreptococcus, 35 clinical strains, GAM broth, 72 hours anaerobic incubation at 35° C.
Description: (§1) Experimental strains: isolated from clinical specimens, and species identification were conducted.
(§2) Bacilli preparation: 4˜5 bacteria colonies with same pattern selected from anaerobic GAM plate were inoculated in GAM broth with inoculating loop. The bacteria was incubated at 35° C. under anaerobic condition until a slight turbidity was attained, and adjusted by means of sterilized saline (deoxygenated) so as to attain a turbidity equivalent to the No. 0.5 McFarland turbidity tube, then diluted with GAM broth (at 1:200) for later use.
(§3) MIC (Minimum Inhibitory Concentration) determination: the testing drugs and control drugs were diluted with GAM broth to different concentrations in the test tubes, followed by addition of equal volume of diluted Bacilli (at 1:200), MIC values were read 72 hours after anaerobic incubation at 35° C.

[2] = tested on: Bacteroides; assay: as above; assay type: cell-based; conditions: 40 clinical strains, GAM broth, 72 hours anaerobic incubation at 35° C.
Description: as §1, §2, §3

[3] = tested on: Fusobacterium nucleatum; assay: as above; assay type: cell-based; conditions: 11 clinical strains, GAM broth, 72 hours anaerobic incubation at 35° C.
Description: as §1, §2, §3

[4] = tested on: Veillonella; assay: as above; assay type: cell-based; conditions: 23 clinical strains, GAM broth, 72 hours anaerobic incubation at 35° C.
Description: as §1, §2, §3

[5] = tested on: Clostridium; assay: as above; assay type: cell-based; conditions: 6 clinical strains, GAM broth, 72 hours anaerobic incubation at 35° C.
Description: as §1, §2, §3

[6] = tested on: mice; assay: Effect on the coordination of balancing in mice; assay type: in vivo; conditions: intravenous injection
Description: Experiments were conducted in 9 administration groups, L-, D- and racemic ornidazole were administered to them at doses of 40, 80 and 160 mg/kg. Positive control group received chlorpromazine at a dose of 3 mg/kg.

[7] = tested on: peptostreptococcus (including Escherichia coli); assay: Abdominal infection model in mice, ED50; assay type: in vivo, Kunming white mice; conditions: death observed 7 days
Description: (§4) Kunming white mice, body weight of 20±2 g, half males and half females. 10 mice in each dose group with half females and half males. Abdominal infection models were prepared with the entire animal (mice) and treatments were conducted with the testing drugs. The therapeutical efficacy was observed and expressed as ED50 (half effective dose). Drugs were administered twice by oral gavage (administered immediately after infection for one and 6 hours after infection for the other one). The death status of animals was observed consecutively for seven days after infection and being treated.

[8] = tested on: bacteroides (including Escherichia coli) infection; assay: Abdominal infection model in mice, ED50; assay type: in vivo, Kunming white mice; conditions: death observed 7 days
Description: as §4

[9] = tested on: Kunming mice; assay: Acute toxicology test, LD50 in mice (Bliss method); assay type: in vivo; conditions: for Number of dead animals: 10 animals
Description: Kunming mice, half males and half females, with body weights of 18˜22 g, were administered the testing drug solution by injection 8 hours after fasting. The death status of animals was consecutively observed for 14 days after administration.

[10] = In vivo pharmacokinetics in Beagle dogs; conditions: both sexes, dog, beagle dogs, individual intravenous dose 13 mg/kg, plasma
Description: The clinical dose of ornidazole is 500 mg for human. By calculating, based on body surface area, the pharmacokinetic experimental dose in Beagle dogs was 13 mg/kg in vivo. Six adult beagle dogs (half males and half females, body weight of 9˜11.5 kg) were randomly divided into three groups. According to crossover design, intravenous injection of L-, D-, and racemic ornidazole were administered in turn to each dog every other week (with one week washout period in between). 2 ml of blood was collected from the vein located at the forelimb of the dogs before drug administration and 0.083, 0.5, 1.0, 2.0, 4.0, 6.0, 8.0, 12.0, 16.0, 24.0 hours after drug administration, which was then placed in the heparinized tube, followed by centrifugation to obtain the plasma. Plasma concentration of drug was determined by HPLC. Pharmacokinetics parameters were estimated using the non-compartmental models. The corresponding pharmacokinetics parameters were obtained by BAPP2.0 using the data of plasma concentration of blood with time obtained above.

[11] = tested on: mice; assay: Effect on the hypnotic effect induced by sodium thiopental in mice; conditions: 40 mg/kg sodium thiopental i.p. 30 minutes later
Description: The same volume of 0.9% sodium chloride injection containing propylene glycol was administered in the vehicle control group. 30 minute after drug administration, 40 mg/kg of sodium thiopental was administered to mice by intraperitoneal injection. The time for the loss of righting reflex and the time for the recovery were recorded. The injection volume was 0.2 ml/10 g, the administration rate was 0.2 ml/10 sec.

Cc1ncc([N+](=O)[O-])n1CC(O)CCl (racemic) [racemic ornidazole, ornidazole]
MIC50 ([1]; read-out: MIC50): 4 µg/mL (≈ 18.2 µM) | MIC90 ([1]; read-out: MIC90): 8 µg/mL (≈ 36.4 µM) | MIC Range [2]: 2.0~16.0 mg/L | MIC50 ([2]; Bacteroides, read-out: MIC50): 4 µg/mL (≈ 18.2 µM) | MIC90 ([2]; Bacteroides, read-out: MIC90): 8 µg/mL (≈ 36.4 µM) | MIC Range [3]: 1.0~32.0 mg/L | MIC50 ([3]; Fusobacterium nucleatum, read-out: MIC50): 2 µg/mL (≈ 9.11 µM) | MIC90 ([3]; Fusobacterium nucleatum, read-out: MIC90): 32 µg/mL (≈ 146 µM) | MIC Range [4]: 2.0~16.0 mg/L | MIC50 ([4]; Veillonella, read-out: MIC50): 4 µg/mL (≈ 18.2 µM) | MIC90 ([4]; Veillonella, read-out: MIC90): 8 µg/mL (≈ 36.4 µM) | MIC Range [5]: 1.0~2.0 mg/L | MIC50 ([5]; Clostridium, read-out: MIC50): 2 µg/mL (≈ 9.11 µM) | MIC90 ([5]; Clostridium, read-out: MIC90): 2 µg/mL (≈ 9.11 µM) | effect on the coordination and balance (number of falling animals) ([6]; 160 mg/kg): significant effect | effect on the coordination and balance, compared with the vehicle control group ([6]; doses of 40 and 80 mg/kg): no significant effect | ED50 ([7]; Peptostreptococcus, oral gavage twice (immediately and 6 hours after infection), read-out: ED50 (half effective dose)): 49.1 mg/kg | 95% CI of ED50 ([7]; oral gavage twice): 61.1˜39.4 mg/kg | ED50 ([8]; Bacteroides, oral gavage twice (immediately and 6 hours after infection), read-out: ED50 (half effective dose)): 39.9 mg/kg | 95% CI of ED50 ([8]; oral gavage twice): 51.9˜30.7 mg/kg | Death rate ([9]; intraperitoneal, 887.4 mg/kg): 0% | Probability units (Y) ([9]; intraperitoneal, 887.4 mg/kg): 3.39 | Number of dead animals ([9]; intraperitoneal, 887.4 mg/kg): 0 | Death rate ([9]; intraperitoneal, 1044 mg/kg): 30% | Probability units (Y) ([9]; intraperitoneal, 1044 mg/kg): 4.42 | Number of dead animals ([9]; intraperitoneal, 1044 mg/kg): 3 | Death rate ([9]; intraperitoneal, 1228 mg/kg): 80% | Probability units (Y) ([9]; intraperitoneal, 1228 mg/kg): 5.46 | Number of dead animals ([9]; intraperitoneal, 1228 mg/kg): 8 | Death rate ([9]; intraperitoneal, 1445 mg/kg): 100% | Probability units (Y) ([9]; intraperitoneal, 1445 mg/kg): 6.49 | Number of dead animals ([9]; intraperitoneal, 1445 mg/kg): 10 | Death rate ([9]; intraperitoneal, 1700 mg/kg): 100% | Probability units (Y) ([9]; intraperitoneal, 1700 mg/kg): 7.52 | Number of dead animals ([9]; intraperitoneal, 1700 mg/kg): 10 | Death rate ([9]; intravenous, 243 mg/kg): 0% | Probability units (Y) ([9]; intravenous, 243 mg/kg): 3.22 | Number of dead animals ([9]; intravenous, 243 mg/kg): 0 | Death rate ([9]; intravenous, 270 mg/kg): 30% | Probability units (Y) ([9]; intravenous, 270 mg/kg): 4.06 | Number of dead animals ([9]; intravenous, 270 mg/kg): 3 | Death rate ([9]; intravenous, 300 mg/kg): 50% | Probability units (Y) ([9]; intravenous, 300 mg/kg): 4.90 | Number of dead animals ([9]; intravenous, 300 mg/kg): 5 | Death rate ([9]; intravenous, 333 mg/kg): 50% | Probability units (Y) ([9]; intravenous, 333 mg/kg): 5.73 | Number of dead animals ([9]; intravenous, 333 mg/kg): 5 | Death rate ([9]; intravenous, 370 mg/kg): 100% | Probability units (Y) ([9]; intravenous, 370 mg/kg): 6.57 | Number of dead animals ([9]; intravenous, 370 mg/kg): 10 | Death rate ([9]; oral gavage, 655.4 mg/kg): 0% | Probability units (Y) ([9]; oral gavage, 655.4 mg/kg): 3.20 | Death rate ([9]; oral gavage, 819.2 mg/kg): 20% | Probability units (Y) ([9]; oral gavage, 819.2 mg/kg): 4.20 | Death rate ([9]; oral gavage, 1024 mg/kg): 70% | Probability units (Y) ([9]; oral gavage, 1024 mg/kg): 5.19 | Probability units (Y) ([9]; oral gavage, 1280 mg/kg): 6.19 | Death rate ([9]; oral gavage, 1600 mg/kg): 100% | Number of dead animals ([9]; oral gavage, 1600 mg/kg): 10 | half-life ([10]; HPLC, non-compartmental, read-out: t1/2 (half life) (converted)): 5.55 ± 3.12 h | AUC(0-t) ([10]; read-out: AUC0-t (area under curve)): 76700 ± 10800 ng·h/mL | clearance ([10]; read-out: Cl (clearance) (converted)): 23.8 mL/min | MRT ([10]; read-out: MRT (mean retention time of drugs)): 8.01 ± 3.42 h | Vd ([10]; read-out: Vβ (elimination volume of distribution)): 11.2 ± 3.96 L | sleep latency induced by sodium thiopental, compared with the vehicle control group ([11]; 40 mg/kg intravenous): no significant reduction | sleep latency induced by sodium thiopental, compared with the vehicle control group ([11]; 80 mg/kg intravenous): significantly reduced
